Assay results as given in patent US5190922A (priority 1991, dated 1993).
Non-standard residues stand in square brackets, D forms with d. Residues, ends and D or L forms follow the SMILES beside them. *: point of attachment. X6 = N#CC(Cc1ccccc1)(Cc1ccccc1)C(=O)*; NMeF = CN[C@@H](Cc1ccccc1)C(=O)O; Cha = N[C@@H](CC1CCCCC1)C(=O)O; dCha = N[C@H](CC1CCCCC1)C(=O)O; Phe(ol) = N[C@H](CO)Cc1ccccc1; X9 = CC[C@H](C(=O)*)c1ccccc1

Target: T1, C5a Receptor (Homo sapiens, UniProt P21730)
T1 construct: 2.5-25 μg/mL of purified PMNL membrane fragments; from tissue; host or cells: polymorphonuclear leukocyte (PMNL) membrane fragments
T1 sequence (P21730 1-350): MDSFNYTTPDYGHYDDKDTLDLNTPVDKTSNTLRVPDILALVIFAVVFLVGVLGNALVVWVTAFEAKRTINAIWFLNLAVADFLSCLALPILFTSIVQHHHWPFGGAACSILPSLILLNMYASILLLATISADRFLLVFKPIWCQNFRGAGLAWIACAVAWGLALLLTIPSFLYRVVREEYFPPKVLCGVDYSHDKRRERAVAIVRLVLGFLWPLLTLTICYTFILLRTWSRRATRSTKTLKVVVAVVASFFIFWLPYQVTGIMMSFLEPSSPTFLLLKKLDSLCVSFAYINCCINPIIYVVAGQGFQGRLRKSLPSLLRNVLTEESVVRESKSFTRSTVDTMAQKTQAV
Assay: Anaphylatoxin receptor binding Ki determination (inhibition of 125I-C5a binding to PMNL membrane fragments)
Settings: 0.03-1 nM 125I-C5a, 2.5-25 μg/mL purified PMNL membrane fragments, filtration; read-out: Ki (In vitro C5a Receptor Binding Potency)
Experimental: Specific inhibition of C5 a binding activity of representative compounds of the present invention was measured using 0.03-1 nM ^125 I-C5 a with 2.5-25 μg/mL of purified PMNL membrane fragments (Borregaard, N.; Heiple, J. M.; Simons, E. R.; and Clark, R. A. J. Cell. Biol. 1983, 97, 52-61.). Free and membrane-bound ligand were separated by filtration.

`CN[C@@H](Cc1ccccc1)C(=O)N[C@@H](CCCCN)C(=O)N1CCC[C@H]1C(=O)N[C@H](CC1CCCCC1)C(=O)N[C@H](CO)Cc1ccccc1` [Example 119, (N-Methyl)Phenylalanyl-Lysyl-Prolyl-{(2R)-2-Amino-3-cyclohexylpropanoyl}-{(S)-(-)-2-Amino-3-phenyl-1-propanol}] (H-[NMeF]KP[dCha][Phe(ol)]) and `N#CC(Cc1ccccc1)(Cc1ccccc1)C(=O)N[C@@H](CCCCN)C(=O)N1CCC[C@H]1C(=O)N[C@H](CC1CCCCC1)C(=O)N[C@@H](Cc1ccccc1)C(=O)N[C@H](CCCNC(=N)N)C(=O)O` [Example 88, {2-Benzyl-2-cyano-3-phenylpropionyl}-Lysyl-Prolyl-{(2R)-2-Amino-3-cyclohexylpropanoyl}-Phenylalanyl-DArginyl-OH] (X6-KP[dCha]F[dR]-OH) are within 1.5-fold of each other in Ki: 780 nM for the first, 670 nM for the second.

Work on `CC[C@H](C(=O)N[C@@H](CCCCN)C(=O)N1CCC[C@H]1C(=O)N[C@H](CC1CCCCC1)C(=O)N[C@@H](CC1CCCCC1)C(=O)N[C@H](CCCNC(=N)N)C(=O)O)c1ccccc1` [Example 2, (S)-(+)-2-phenylbutyryl-Lysyl-Prolyl-{(2R)-2-Amino-3-cyclohexylpropanoyl}-{(2S)-2-Amino-3-cyclohexylpropanoyl}-DArginyl-OH] (X9-KP[dCha][Cha][dR]-OH) yielded a Ki of 14 nM.
